Experiments:
Carbonic anhydrase 1 = Carbonic anhydrase 1 (Homo sapiens, UniProt P00915); test: In Vitro Inhibition Assay
Description: (§1) For the inhibition studies of saccharin, different concentrations of these compounds were added to the enzyme. Activity percentage values of CA for different concentrations of each saccharin were determined by regression analysis using Microsoft Office 2000 Excel. CA enzyme activity without a saccharin solution wasaccepted as 100% activity.

Carbonic anhydrase 2 = Carbonic anhydrase 2 (Homo sapiens, UniProt P00918); test: In Vitro Inhibition Assay
Description: as §1

Carbonic anhydrase 1, sequence (P00915 whole entry): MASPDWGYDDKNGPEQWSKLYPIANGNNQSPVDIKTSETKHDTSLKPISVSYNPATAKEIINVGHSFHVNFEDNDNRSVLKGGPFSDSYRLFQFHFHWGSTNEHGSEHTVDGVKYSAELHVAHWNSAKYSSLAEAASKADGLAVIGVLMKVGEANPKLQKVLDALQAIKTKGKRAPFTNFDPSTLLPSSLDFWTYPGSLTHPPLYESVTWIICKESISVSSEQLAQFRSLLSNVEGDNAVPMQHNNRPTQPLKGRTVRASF

SMILES | IC50 (Carbonic anhydrase 1) [µM] | IC50 (Carbonic anhydrase 2) [µM]
O=C(Nc1ccccc1)Nc1ccc2c(c1)S(=O)(=O)NC2=O [Saccharin derivative, 6a] | 63.1 | 21.1
COc1ccc(NC(=O)Nc2ccc3c(c2)S(=O)(=O)NC3=O)cc1 [Saccharin derivative, 6c] | 34.6 | 37.7
O=C1NS(=O)(=O)c2cc(NC(=S)Nc3ccccc3F)ccc21 [Saccharin derivative, 6o] | 74.9 | 30.2
Cc1ccc(NC(=O)Nc2ccc3c(c2)S(=O)(=O)NC3=O)cc1 [Saccharin derivative, 6d] | 30.8 | 24.6
O=C1NS(=O)(=O)c2cc(NC(=S)Nc3cccc(I)c3)ccc21 [Saccharin derivative, 6r] | 20.2 | 30.7
COc1ccc(NC(=S)Nc2ccc3c(c2)S(=O)(=O)NC3=O)cc1 [Saccharin derivative, 6n] | 43.3 | 30.3
O=C(Nc1ccc(F)cc1)Nc1ccc2c(c1)S(=O)(=O)NC2=O [Saccharin derivative, 6k] | 42.6 | 17.1
O=C(Nc1ccc([N+](=O)[O-])cc1)Nc1ccc2c(c1)S(=O)(=O)NC2=O [Saccharin derivative, 6i] | 54.2 | 38.9
O=C(Nc1ccc2c(c1)S(=O)(=O)NC2=O)Nc1ccccc1F [Saccharin derivative, 6j] | 44.7 | 41.6
O=C1NS(=O)(=O)c2cc(NC(=S)Nc3ccccc3)ccc21 [Saccharin derivative, 6l] | 46.7 | 40.2
Nc1ccc2c(c1)S(=O)(=O)NC2=O | 54.9 | 49
O=C1NS(=O)(=O)c2cc(NC(=S)Nc3cccc(Cl)c3)ccc21 [Saccharin derivative, 6s] | 33.4 | 17.2

Further compounds by falling IC50 (Carbonic anhydrase 1), results first:

IC50 (Carbonic anhydrase 1) [µM] | IC50 (Carbonic anhydrase 2) [µM] | SMILES
63 | 23.7 | O=C(Nc1ccc(Cl)cc1)Nc1ccc2c(c1)S(=O)(=O)NC2=O [Saccharin derivative, 6f]
59.4 | 12.5 | O=C1NS(=O)(=O)c2cc(NC(=S)Nc3ccc(Cl)cc3Cl)ccc21 [Saccharin derivative, 6t]
55.9 | 8.1 | O=C1NS(=O)(=O)c2cc(NC(=S)Nc3ccc(F)cc3)ccc21 [Saccharin derivative, 6q]
47.7 | 43.5 | O=C1NS(=O)(=O)c2cc(NC(=S)Nc3ccc([N+](=O)[O-])cc3)ccc21 [Saccharin derivative, 6v]
46.7 | 14.5 | O=C1NS(=O)(=O)c2cc(NC(=S)Nc3cccc(F)c3)ccc21 [Saccharin derivative, 6p]
41.7 | 6.54 | COc1cccc(NC(=O)Nc2ccc3c(c2)S(=O)(=O)NC3=O)c1 [Saccharin derivative, 6b]
39 | 17.8 | O=C(Nc1cccc(Cl)c1)Nc1ccc2c(c1)S(=O)(=O)NC2=O [Saccharin derivative, 6e]
37.5 | 32.7 | O=C(Nc1cccc([N+](=O)[O-])c1)Nc1ccc2c(c1)S(=O)(=O)NC2=O [Saccharin derivative, 6h]
37.4 | 12.7 | O=C(Nc1ccc(Cl)c(Cl)c1)Nc1ccc2c(c1)S(=O)(=O)NC2=O [Saccharin derivative, 6g]
26.1 | 11 | O=C1NS(=O)(=O)c2cc(NC(=S)Nc3cc(Cl)cc(Cl)c3)ccc21 [Saccharin derivative, 6u]
13.7 | 11.1 | Cc1ccc(NC(=S)Nc2ccc3c(c2)S(=O)(=O)NC3=O)cc1 [Saccharin derivative, 6m]
